Source: patent publication US11980607B2, “Methods of treating malignant lymphoproliferative disorders” (Actuate Therapeutics Inc., priority 2018, dated 2024)

How the values were obtained:
[1] = test system: primary lymphoma cells freshly isolated from patients; test: Proliferation of primary lymphoma patient cells; assay type: cell-based, human; conditions: 5 patient samples (MCL, high grade B-cell lymphoma, follicular 3B, DLBCL, angioimmunoblastic TCL)
Description: (A) Immunoblot of GSK-3α and GSK-3β proteins showing overexpression in patient samples vs normal B-cell control. P1: MCL; P2: High grade B-cell lymphoma; P3: follicular large B-cell lymphoma 3B; P4: DLBCL; P5: angioimmunoblastic T-cell lymphoma. (B) 9-ING-41 inhibited proliferation in all 5 patient samples. (C) Immunohistochemistry staining of GSK-3β on paraffin tissue sections of patients with various lymphoma. Representative images show the spectrum of GSK-3β (in brown) overexpression in different lymphoma samples. […] Images were collected under 40× magnification.
Lymphoma tissue samples were obtained from patients after written informed consent. This Lymphoma SPORE biospecimens protocol was approved by the Mayo Clinic Institutional Review Board in accordance with the Declaration of Helsinki. All primary patient samples were biopsy tissues from spleen or lymph nodes. Fresh tissue samples were gently dissociated into cell suspension and subjected to Ficoll-Paque density gradient centrifugation. Primary lymphoma cells were then used directly for proliferation assay, or stored in −80° C. for Western analysis later after lymphoma diagnosis confirmation.
Cells were seeded at 1×10^4 cells/well in 96 well plates, and incubated with 9-ING-41 at indicated concentrations for 48 hours followed by pulsing with tritium labeled thymidine for overnight before being analyzed for thymidine uptake. […]

[2] = test system: purified normal unstimulated T lymphocytes or peripheral blood mononuclear cells; test: Apoptosis assay in normal cells; assay type: cell-based, human; conditions: even at 10.0 μM 9-ING-41
Protocol: Unstimulated peripheral blood B- and T-lymphocytes isolated from a healthy donor were used as normal control. Pro-apoptotic effect of the GSK3 inhibitor 9-ING-41 in various MCL and TCL lines (A) and DLBCL lines (B). (C) Cell proliferation profile of various lymphoma cell lines upon treatment with 9-ING-41. Results (A-C) are from 3 independent experiments.
(§1) Cells were seeded at 5×10^5 cells/well in 24 well plates, and incubated with 9-ING-41 at indicated concentrations for 48 hours. The cells were then stained with FITC conjugated Annexin V (Life Technologies) and Propidium Iodide followed by analysis on a BD FACS Calibur flow cytometer.
(§2) Given that both GSK3α and GSK3β are overexpressed in lymphoma cells, and that both enzymes are implicated in multiple signaling pathways critical for cell functions, whether GSK3α and GSK3β are functionally supporting the survival and proliferation of lymphoma cells was examined. […] The inhibitory concentrations of 9-ING-41 at half of the maximal effect (IC50) on cell survival of various lymphoma cell lines was calculated (Table 1).

[3] = test system: T-cell lymphoma (non-Hodgkin's); test: Treatment of T-Cell Lymphoma in a human; assay type: in vivo; conditions: 2 mg/kg per day, six 21 day cycles
Protocol: A human suffering from T-cell lymphoma (non-Hodgkin's) is administered 2 mg/kg per day of 9-ING-41 for six 21 day cycles. After treatment, the human's TCL is in remission.

[4] = test system: Diffuse large B-cell lymphoma; test: Treatment of Diffuse Large B-cell Lymphoma in a human; assay type: in vivo; conditions: 1 mg/kg per day, six 21 day cycles
Protocol: A human suffering from Diffuse large B-cell lymphoma is administered 1 mg/kg per day of 9-ING-41 for six 21 day cycles. After treatment, the human's DLBCL is in remission.

Mino = test: Apoptosis assay (Annexin V/PI), cell survival; assay type: cell-based; conditions: Homo sapiens; Mino (MCL), 48 hours
Protocol: as §1
(§3) The IC50S of 9-ING-41 on cell survival and proliferation was calculated using an on-line IC50 calculation tool (https://www.aatbio.com/tools/ic50-calculator/).
as §2

Jeko = test: Apoptosis assay (Annexin V/PI), cell survival; assay type: cell-based; conditions: Homo sapiens; Jeko (MCL), 48 hours
Protocol: as §1, §3, §2

MyLa = test: Apoptosis assay (Annexin V/PI), cell survival; assay type: cell-based; conditions: Homo sapiens; MyLa (TCL), 48 hours
Protocol: as §1, §3, §2

OCI-LY1 = test: Apoptosis assay (Annexin V/PI), cell survival; assay type: cell-based; conditions: Homo sapiens; OCI-LY1 (DLBCL), 48 hours
Protocol: as §1, §3, §2

SeAx = test: Apoptosis assay (Annexin V/PI), cell survival; assay type: cell-based; conditions: Homo sapiens; SeAx (TCL), 48 hours
Protocol: as §1, §3, §2

OCI-LY19 = test: Apoptosis assay (Annexin V/PI), cell survival; assay type: cell-based; conditions: Homo sapiens; OCI-LY19 (DLBCL), 48 hours
Protocol: as §1, §3, §2

Karpas-299 = test: Apoptosis assay (Annexin V/PI), cell survival; assay type: cell-based; conditions: Homo sapiens; Karpas-299 (TCL), 48 hours
Protocol: as §1, §3, §2

OCI-Ly3 = test: Apoptosis assay (Annexin V/PI), cell survival; assay type: cell-based; conditions: Homo sapiens; OCI-Ly3 (DLBCL), 48 hours
Protocol: as §1, §3, §2

Granta-519 = test: Apoptosis assay (Annexin V/PI), cell survival; assay type: cell-based; conditions: Homo sapiens; Granta-519 (MCL), 48 hours
Protocol: as §1, §3, §2

SU-DHL6 = test: Apoptosis assay (Annexin V/PI), cell survival; assay type: cell-based; conditions: Homo sapiens, SU-DHL-6; SU-DHL6 (DLBCL), 48 hours
Protocol: as §1, §3, §2

With `Cn1cc(C2=C(c3coc4ccc(F)cc34)C(=O)NC2=O)c2cc3c(cc21)OCO3` [9-ING-41, 3-(5-Fluorobenzofuran-3-yl)-4-(5-methyl-5H-[1,3]dioxolo[4,5-f]indol-7-yl)pyrrole-2,5-dione] the “Antiproliferative effect in primary patient cells” value [1] was “similarly responsive to the antiproliferative effects”, the “Apoptosis in normal cells” value [2] was “no significant apoptosis” and the Outcome after treatment [3] was “in remission”. For the same compound, the Outcome after treatment [4] was “in remission”, the IC50 (Mino) was 0.55 µM and the IC50 (Jeko) was 1.28 µM. It also gave an IC50 (MyLa) of 0.69 µM, an IC50 (OCI-LY1) of 3.05 µM and an IC50 (SeAx) of 1.6 µM. It also gave an IC50 (OCI-LY19) of 2.21 µM, an IC50 (Karpas-299) of 3.34 µM and an IC50 (OCI-Ly3) of 3.76 µM. The IC50 (Granta-519) was 0.77 µM and the IC50 (SU-DHL6) was 1.58 µM.
